Converted amounts (≈) assume the structure as drawn. Marks after values point to notes of the source that are not given here. Some results are limits rather than exact numbers.

The values that follow come from patent US12703693B2, “Crystalline forms of N-{3-[(1S)-1-{[6-(3,4-dimethoxyphenyl)pyrazin-2-yl]amino}ethyl]phenyl}-5-methylpyridine-3-carboxamide and related products and methods” (GB002, INC., priority 2021, dated 2026).

The nature of data set [1]: Solubility in ethyl acetate and ethyl acetate+2% water (Crystal16 parallel crystallizer). In kind it is physicochemical. As to conditions: presence of water (2%). How it is done: The solubility of crystalline Forms A and B of Compound 1 in ethyl acetate was determined using a Crystal16® parallel crystallizer. Two heating rates were used, 1° C./min and 0.5° C./min. The suspensions were heated to 78° C. and cooled to 10° C. at 0.2° C./min and maintained for 2 h at 10° C. […] The suspensions were heated to 78° C. at 1° C./min, cooled to 10° C. at 0.2° C./min and maintained for 2 h at 10° C. FIG. 15 compares the resulting solubility curve with the pure ethyl acetate.

Data set [2] is described as follows: Sample stress, 40° C. and 75% relative humidity, XRPD. In kind it is physicochemical. As to conditions: open vial, 6 days. How it is done:
Two samples, one containing pure crystalline Form A of Compound 1 and a second containing a mixture of crystalline Forms A and B of Compound 1 were placed in an open vial at 40° C. and 75% relative humidity for 6 days and then analyzed by XRPD. The results are presented in Table 11; no changes by XRPD were observed.

The nature of data set [3]: Gravimetric Vapor Sorption (GVS). The note with it: 25° C. In kind it is physicochemical. How it is done: Approximately 10-20 mg of crystalline Form A of Compound 1 was placed into a mesh vapor sorption balance pan and loaded into an IGASorp Moisture Sorption Analyzer balance by Hiden Analytical. The sample was subjected to a ramping profile from 40-90% relative humidity (RH) at 10% increments, maintaining the sample at each step until a stable weight had been achieved (98% step completion, minimum step length 30 minutes, maximum step length 60 minutes) at 25° C. After completion of the sorption cycle, the sample was dried using the same procedure to 0% RH, and finally taken back to the starting point of 40% RH. Two cycles were performed. The weight change during the sorption/desorption cycles were plotted, allowing for the hygroscopic nature of the sample to be determined.

Data set [4] can be described thus: Physical stability, 1 week storage (HPLC purity, XRPD). The data set is classed as physicochemical. The protocol:
Two vials each were then stored for 1 week under various conditions of temperature and relative humidity.
XRPD analysis was performed to detect changes in crystallinity.

Data set [5] is described as follows: Particle size distribution (PSD) of micronized / spray dried material. The data set is classed as physicochemical. The note with it: Example 9 wet milling, 5% w/w in water, 45 cycles/P = 50 bar. From the text:
Crystalline Compound 1 Form A was fed into a grinding chamber tangentially by vacuum created by the venturi system using pressurized nitrogen (venturi pressure, Pvent, above grind pressure, Pgrind). Compressed nitrogen was also used for the jet nozzles in the walls of the chamber. The feed flow rate was set and controlled automatically (by a gravimetric feeder) or manually. Once inside the milling chamber particles were accelerated by a series of perimeter jets, in a spiral movement. The compressed fluid issuing from the nozzles expands from Pgrind and imparts very high rotational speeds in the chamber. The micronizing effect occurs when the slower incoming particles and the faster particles in the spiral path collide. While centrifugal force retains the larger particles at the periphery of the milling chamber, the smaller particles exit with the exhaust gas from the center of the chamber. Five 20 g trials were performed in a 1.5″ jet mill, under varying feed rates (Ffeed,JM,) and pressures; the optimal conditions were used for a sixth larger scale 50 g trial.
Aqueous suspensions of crystalline Compound 1 Form A in water (5% w/w or 10% w/w) were processed via microfluidization with a HPH18 (M-110EH-30 Microfluidics Pilot) wet milling apparatus equipped with an auxiliary processing module (200 μm) and an interaction chamber (Z-shape, 100 μm). The unit was initiated at a given pressure for the first five cycles to perform a pre-milling of the suspension, using only the auxiliary processing module (200 μm). The interaction chamber (100 μm) was then introduced and the suspension processed at a defined pressure. The temperature was controlled, using a reactor jacket, and recorded. To address clogging of the micronization chambers (observed after ~25 cycles), the pressure was increased from 25 to 60 bar.
The material isolated from the first run 1A, was dived into three (1BI, 1BII and 1BIII); runs 2A and 3A were spray dried to produce samples 2B and 3B, respectively. […] Runs 2B and 3B were additionally characterized for specific surface area (SSA). See Table 27 (runs 1BI, 1BII and 1BIII) and Table 28 (runs 2B and 3B) for conditions and product characterization. […]
Two 250 g batches of crystalline Compound 1 Form A were each suspended in water (5 L) and wet polished in a wet milling HPH18 (M-110EH-30 Microfluidics Pilot) apparatus, equipped with an auxiliary processing module (200 μm) and an interaction chamber (Z-shape, 100 μm). The unit was initiated at 50 bar for the first five cycles to perform a pre-milling of the suspension, using only the auxiliary processing module (200 μm). The interaction chamber (100 μm) was then introduced and the suspension processed at 50 bar (increased to 60 or 70 bar if the system clogged). The temperature was maintained at 18-28° C. using a reactor jacket. The Reactor agitation speed was 280 RPM (batch 1) and 390 RPM (batch 2). The first batch was micronized for 25 cycles and particle size distribution analyzed after 5, 15 and 20 cycles; the second batch was micronized for […] and particle size distribution analyzed after 15, 20, 25 and 35 cycles.
Both batches were then spray dried (separately) using a Büchi spray dryer, using an open loop system. The unit was equipped with a two-fluid nozzle: cap and orifice diameters of 1.5 and 0.7 mm, respectively operated with nitrogen. The aspirator, blowing nitrogen, was set at 100% capacity (~40 kg/h). The suspension feed flow was set to 8 ml/min, high and the drying outlet temperature to 75±1° C. […] Total yield (both batches combined) was 267 g (53%).
Two 250 g batches (250 g and 238 g; 488 g total) of crystalline Compound 1 Form A coated with ~2% L-leucine were each suspended in water (5 L) and wet polished in a wet milling HPH18 (M-110EH-30 Microfluidics Pilot) apparatus, under the same process as described in the previous example. The first batch was micronized for 25 cycles and the second for 30 cycles. […]

A further data set can be described thus: physchem. The note with it: 22 °C, aqueous with cosolvent or surfactant or cyclodextrin, thermodynamic from solid.
Data set [6] can be described thus: Solubility in 25 mM phosphate buffer pH 7.4.
Method: (§1) Phosphate Buffer contained NaH2PO4·H2O (0.345 g), sodium hydroxide aqueous solution (0.2M, 10.001 mL), sodium chloride (0.576 g) and water (qs ad 100.0 mL); • Ethanol/Water (30/70) contained Ethanol (30.0 g) and Water (70.0 g); • Ethanol/Water (40/60) contained Ethanol (40.0 g) and Water (60.0 g); • Ethanol/Water (50/50) contained Ethanol (50.0 g) and Water (50.0 g); and • Ethanol/Water (45/55) contained Ethanol (4.50 g) and Water (5.51 g).
A short description of data set [7]: Thermodynamic solubility in pH 3, 4.5, 6.8 buffers and deionized water. As to conditions: for pH (24 h): ~24 h agitation at ambient temperature.
A short description of data set [8]: Solubility in ethanol/water mixtures.
Method: as §1
Data set [9] is described as follows: Solvent solubility of amorphous Compound 1 (solvent aliquot addition). In kind it is physicochemical. The note with it: thermodynamic from solid. How it is done:
Test solvent/solvent system (50 μL) was added to the vial and the mixture assessed for dissolution. If no dissolution was apparent, the mixture was heated to ca. 40° C. and reassessed; if dissolution was still incomplete, the cycle was repeated and an additional 50 μL of solvent added. After 300 μL of solvent had been added, 100 μL aliquots were added. This procedure was continued until complete dissolution was observed or until 1 mL of solvent had been added.

Data set [10] is described as follows: Fragility and relaxation time (Tg vs heating rate by DSC). The note with it: 25° C.; calculated from fragility parameters (γ=0.9, τ0=10^−14 s). The data set is classed as physicochemical. How it is done:
Fragility and relaxation time parameters were determined by measuring Tg as a function of heating rate. Four heating rates were used: 1, 5, 10 and 20° C./min. DSC measurements were made by: • (1) heating at 10° C./min to 100° C.; • (2) isothermal hold for 5 min; • (3) cooling at 10° C./min to −20° C.; • (4) isothermal hold for 5 min; and • (5) heating at 10° C./min to 130° C.
The slope was used to calculate the activation enthalpy (ΔH*), from which the fragility parameters m, D and T0 were calculated, according to the following equations:
Using the fragility parameters, the initial structural relaxation time was calculated according to the following formula, (using γ=0.9 and τ0=10^−14 s) and determined to be 3 months at 25° C.

[11] abbreviates: EtOH/H2O (w:w) 50:50, top layer after centrifugation, 22° C.

Method for physchem: as §1

What is called solubility is how much of the substance goes into solution per volume. As for `COc1ccc(-c2cncc(N[C@@H](C)c3cccc(NC(=O)c4cncc(C)c4)c3)n2)cc1OC` [Form A, N-{3-[(1S)-1-{[6-(3,4-dimethoxyphenyl)pyrazin-2-yl]amino}ethyl]phenyl}-5-methylpyridine-3-carboxamide], the “solubility in ethyl acetate+2% water compared to pure ethyl acetate” value in [1] is “significantly more soluble”. For the same molecule, the “XRPD observation after stress conditions” value in data set [2] is listed as “No change - all Form A”. Moreover, the “hygroscopic nature (GVS)” value in data set [3] (two sorption/desorption cycles) is recorded as “slightly hygroscopic”. In addition, the GVS mass increase in data set [3] (up to 90% relative humidity) was roughly 0.7%. Moreover, the “Purity (HPLC)” value in [4] (1 week, 25° C./60% relative humidity (open vial)) is given as roughly 99.1%; in data set [4] (1 week, 40° C./75% relative humidity (open vial)), roughly 99.1%; in data set [4] (1 week, 80° C. (closed vial)), roughly 99.0%; in data set [4] (1 week, Ambient light/temperature (closed vial)) it was roughly 98.9%; in data set [4] (Before storage), roughly 99.3%. Further, the “crystalline form by XRPD after storage” value in data set [4] (one week, ambient, 25° C., 40° C., 80° C., relative humidity ambient, 60%, 75%) is “maintained”. Besides, the Dv10 in [5] came out at 0.1 μm. Besides, the Dv50 in data set [5] is given as 1.0 μm. Moreover, the Dv90 in data set [5] was 3.5 μm. The molecule also showed a solubility in the data set “physchem” of 2 to 350 mg/mL (≈ 4.26 to 745 mM). For the same molecule, the “solubility in phosphate buffer” value in data set [6] (phosphate buffer, pH 7.4) was “moderate solubility”. Also, the “pH (Initial)” value in data set [7] (Water, after addition) came to 6.78; in data set [7] (pH 3 buffer, after buffer addition) it was 2.96; in [7] (pH 4.5 buffer, after buffer addition), 4.55; in data set [7] (pH 6.8 buffer, after buffer addition), 6.83. Also, the “pH (24 h)” value in [7] (Water) stood at 6.73; in data set [7] (pH 3 buffer), 2.94; in data set [7] (pH 4.5 buffer), 4.55; in data set [7] (pH 6.8 buffer) it was 6.79. For the same molecule, the “Compound 1 concentration in filtered mother liquors (HPLC)” value in [7] (all buffers (pH 3, 4.5, 6.8) and water, ambient temperature, ~24 h) was less than 0.05 mg/mL.
As for `COc1ccc(-c2cncc(N[C@@H](C)c3cccc(NC(=O)c4cncc(C)c4)c3)n2)cc1OC` [Crystalline], the “Solubility 4 Hours” value came to 18.9 mg/mL (≈ 40.3 mM) in data set [8] (EtOH/H2O (w:w) 40:60, 22° C.); 53.3 mg/mL (≈ 114 mM) in [8] (EtOH/H2O (w:w) 45:55, 22° C.); 222 mg/mL (≈ 473 mM) in data set [8] (EtOH/H2O (w:w) 50:50, bottom layer after centrifugation, 22° C.); 125 mg/mL (≈ 266 mM) in data set [8] (setting [11]). Besides, the “Solubility 24 Hours” value was 18.3 mg/mL (≈ 39 mM) in data set [8] (EtOH/H2O (w:w) 40:60, 22° C.); 43.3 mg/mL (≈ 92.2 mM) in data set [8] (EtOH/H2O (w:w) 45:55, 22° C.); 362* mg/mL in data set [8] (EtOH/H2O (w:w) 50:50, bottom layer after centrifugation, 22° C., result outside calibration curve); 177 mg/mL (≈ 377 mM) in [8] (setting [11]). Further, the “Solubility Average” value stood at 18.6 mg/mL (≈ 39.6 mM) in data set [8] (EtOH/H2O (w:w) 40:60, 22° C.) and 48.3 mg/mL (≈ 103 mM) in [8] (EtOH/H2O (w:w) 45:55, 22° C.). Moreover, the solubility in [6] (25 mM phosphate buffer pH 7.4, equil time 4 hrs) was found to be 0.00316 mg/mL (≈ 0.00673 mM); in data set [6] (25 mM phosphate buffer pH 7.4, equil time 24 hrs), 0.00305 mg/mL (≈ 0.0065 mM).
`COc1ccc(-c2cncc(N[C@@H](C)c3cccc(NC(=O)c4cncc(C)c4)c3)n2)cc1OC` [Form A + form B (minor)]: the “XRPD observation after stress conditions” value in data set [2] is recorded as “No change - Form A +”.
For the molecule `COc1ccc(-c2cncc(N[C@@H](C)c3cccc(NC(=O)c4cncc(C)c4)c3)n2)cc1OC` [Amorphous Compound 1, N-{3-[(1S)-1-{[6-(3,4-dimethoxyphenyl)pyrazin-2-yl]amino}ethyl]phenyl}-5-methylpyridine-3-carboxamide], the solubility was no less than 200 mg/mL in [9] (2-propanol, organic solvent or mixture); no less than 200 mg/mL in data set [9] (EtOAc/tBME (75:25% v/v), organic solvent or mixture); no less than 200 mg/mL in [9] (acetone, organic solvent or mixture); no less than 200 mg/mL in data set [9] (acetonitrile, organic solvent or mixture); no less than 200 mg/mL in data set [9] (chloroform, organic solvent or mixture); no less than 200 mg/mL in [9] (ethanol, organic solvent or mixture). For the same molecule, the solubility in data set [9] (ethanol/water (95:5% v/v), organic solvent or mixture) is no less than 200 mg/mL; in data set [9] (ethyl acetate, organic solvent or mixture), no less than 200 mg/mL; in [9] (heptane, organic solvent or mixture) it was less than 10 mg/mL; in data set [9] (methanol, organic solvent or mixture) it was no less than 200 mg/mL; in [9] (methyl ethyl ketone, organic solvent or mixture), no less than 200 mg/mL; in data set [9] (organic solvent or mixture, EtOAc/tBME (25:75% v/v), sample heated to 40° C.), roughly 12.5 mg/mL (≈ 26.6 mM). Further, the solubility in data set [9] (organic solvent or mixture, EtOAc/tBME (50:50% v/v), sample heated to 40° C.) was roughly 100 mg/mL (≈ 213 mM); in data set [9] (tert-butyl methyl ether, organic solvent or mixture), less than 10 mg/mL; in [9] (tetrahydrofuran, organic solvent or mixture) it was no less than 200 mg/mL; in [9] (toluene, organic solvent or mixture), less than 10 mg/mL; in data set [9] (water), less than 10 mg/mL. Besides, the “initial structural relaxation time” value in data set [10] is given as 3 months.
